Biological target: T1, Jack bean urease (Canavalia ensiformis, UniProt P07374)
T1 construct: purchased Fluka Co, Switzerland
Assay: biochemical
Settings: for inhibition at 50 µg/mL: read-out: Percent of inhibition (50 μg/ml)
Method: For urease inhibition assays after addition of phosphate buffer pH = 6.8, sonication was performed for 3 min, followed by centrifugation and evaluating absorbance of upper solution in λ = 278 nm which is attributed to the urease. By using following equation […], where c is the concentration of solution (mol/L), b the Length of the UV cell, we can calculate the concentration of initially urease solution in this way. After appropriate dilution, the concentration of enzyme solution adjusted 2 mg/ml.
The assay mixture, containing 50 μl (2 mg/ml) of Jack-bean urease and 100 μl of different concentration of test compounds, which were dissolved in ethanol 20% previously, was added to 850 μl of 25mM urea and pre-incubated for 0.5 h in water bath at 37°C. The urease reaction was stopped after 30 min incubation by following procedure.
Urease activity was determined by measuring ammonia production using the indophenol method as described by Weatherburn. After pre-incubation, 500 μl of phenol reagent (1% w/v phenol and 0.005% w/v sodium nitroprusside) and 500 μl of alkali reagent (1% w/v NaOH and 0.075% active chloride NaOCl) were added to 100 μl of incubation mixture and kept at 37°C for 30 min.
The absorbance was measured at 625 nm. […] Percentage inhibitions were calculated using the formula (100 – (OD sample / OD control) × 100).
The concentration that provokes an inhibition halfway between the minimum and maximum response of each compound (relative IC50) was determined by monitoring the inhibition effect of various concentrations of compounds in the assay. The IC50 values were then calculated using GraphPad Prism 5 software.

T1 sequence (P07374 whole entry, looked up): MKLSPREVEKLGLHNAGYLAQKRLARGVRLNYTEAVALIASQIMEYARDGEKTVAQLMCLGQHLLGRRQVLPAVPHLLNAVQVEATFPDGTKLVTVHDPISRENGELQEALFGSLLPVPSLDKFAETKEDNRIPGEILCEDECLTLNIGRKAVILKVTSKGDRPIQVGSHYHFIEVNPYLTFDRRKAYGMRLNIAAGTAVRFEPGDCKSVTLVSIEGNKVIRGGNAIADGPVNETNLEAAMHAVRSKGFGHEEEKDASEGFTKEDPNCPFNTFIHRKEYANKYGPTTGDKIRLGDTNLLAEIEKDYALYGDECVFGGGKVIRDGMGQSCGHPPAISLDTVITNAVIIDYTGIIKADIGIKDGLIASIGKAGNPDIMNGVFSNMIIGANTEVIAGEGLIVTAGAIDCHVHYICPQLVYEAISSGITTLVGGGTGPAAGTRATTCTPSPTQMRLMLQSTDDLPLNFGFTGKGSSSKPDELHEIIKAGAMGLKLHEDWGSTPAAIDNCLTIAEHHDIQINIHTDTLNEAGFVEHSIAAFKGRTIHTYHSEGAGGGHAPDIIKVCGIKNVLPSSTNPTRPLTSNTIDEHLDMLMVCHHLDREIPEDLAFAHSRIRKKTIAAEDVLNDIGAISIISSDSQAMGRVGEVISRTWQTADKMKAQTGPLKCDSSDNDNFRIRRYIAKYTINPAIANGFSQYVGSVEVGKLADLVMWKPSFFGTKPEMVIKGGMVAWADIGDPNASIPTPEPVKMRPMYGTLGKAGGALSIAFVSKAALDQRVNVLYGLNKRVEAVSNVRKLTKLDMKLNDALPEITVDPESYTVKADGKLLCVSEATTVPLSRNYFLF

Compound | Percent of inhibition (50 μg/ml) (50 μg/ml test compound, Jack bean urease, 25 mM urea, 37°C) [%] | IC50 [µM] | inhibition at 50 µg/mL [%]
NC(N)=S [Thiourea, thiourea, reference compound] | 88.0 | – | –
CC(=O)OC1CCC2(C)C(CCC3(C)C2C(O)C=C2C4C(C)C(C)CCC4(C)CCC23C)C1(C)C(=O)O (stereo not drawn) [compound 2, 3-O-acetyl-11-hydroxy-β-boswellic acid] | – | 9.21 ± 0.069 | 56.2
CC(=O)O[C@@H]1CC[C@@]2(C)[C@@H](CC[C@]3(C)[C@@H]2C(=O)C=C2[C@@H]4[C@@H](C)[C@H](C)CC[C@]4(C)CC[C@]23C)[C@@]1(C)C(=O)O [compound 3, 3-O-acetyl-11-keto-β-boswellic acid] | – | 16.34 ± 0.063 | 37.4
C[C@H]1[C@H](C)CC[C@]2(C)CC[C@]3(C)C(=CC(=O)[C@@H]4[C@@]5(C)CC[C@@H](O)[C@](C)(C(=O)O)[C@@H]5CC[C@]43C)[C@H]12 [compound 4, 11-keto-β-boswellic acid] | – | 85.23 ± 0.065 | 39.1
